# Patent US20260373103A1, “COMPOSITIONS AND METHODS FOR PREVENTING CARDIOMYOPATHY” (OHIO STATE INNOVATION FOUNDATION, priority 2022, published 2026)
# System: HeLa-Parkin or HeLa-Parkin/USP30 cells
# Experiment: Mitochondrial membrane potential (TMRM signal)
# Format: cell-based
# Conditions: FCCP 10 μM
# Experimental: ΔΨm was measured using a fluorescence microplate reader (BioTek Instruments) in cells preincubated with Tetramethylrhodamine methyl ester (TMRM, Thermo Scientific) following manufacturer's instructions. Cells were washed in PBS before resuspension in Hank's balanced salt solution (HBSS; 156 mM NaCl, 3 mM KCl, 2 mM MgSO4, 1.25 mM KH2PO4, 2 mM CaCl2), 10 mM glucose and 10 mM HEPES; pH adjusted to 7.35 with NaOH) (1.0×10^6 cells/ml) containing 50 nM TMRM. For each individual experiment, average TMRM fluorescence was normalized to control cells.
# We initially analyzed mitochondrial function using Tetramethylrhodamine (TMRM), a dye requiring mitochondrial membrane potential to accumulate within the mitochondria.
compound,measurement,value
"N#CC(C#N)=NNc1ccc(OC(F)(F)F)cc1 [FCCP, Carbonyl cyanide-p-trifluoromethoxyphenylhydrazone, reference compound]",TMRM staining (mitochondrial membrane potential),significant loss of staining
